ChEMBL document CHEMBL1255419, “Pharmacokinetic-pharmacodynamic assessment of faropenem in a lethal murine Bacillus anthracis inhalation postexposure prophylaxis model” (Antimicrob Agents Chemother, 2010)
≈ marks a conversion by molar mass, not a printed value. Calls of active or inactive are those of the source. The rule behind the calls is not given here.

How the values were obtained:
Bacillus anthracis [1] = test: microbe, parasite or virus in culture; format: functional
Bacillus anthracis [2] = test: microbe, parasite or virus in culture; format: functional; remark: listed apart in the source
Bacillus anthracis [3] = test: microbe, parasite or virus in culture; format: functional; remark: listed apart in the source
Bacillus anthracis [4] = test: microbe, parasite or virus in culture; format: functional; remark: listed apart in the source
Bacillus anthracis [5] = test: Antibacterial activity against beta-lactamase Bla1 and Bla2-producing Bacillus anthracis Sterne by broth microdilution method; format: functional
Bacillus anthracis [6] = test: microbe, parasite or virus in culture; format: functional; remark: listed apart in the source
Bacillus anthracis [7] = test: microbe, parasite or virus in culture; format: functional; remark: listed apart in the source
Bacillus anthracis [8] = test: microbe, parasite or virus in culture; format: functional; remark: listed apart in the source
Bacillus anthracis [9] = test: microbe, parasite or virus in culture; format: functional; remark: listed apart in the source
Bacillus anthracis [10] = test: microbe, parasite or virus in culture; format: functional; remark: listed apart in the source
Bacillus anthracis [11] = test: microbe, parasite or virus in culture; format: functional; remark: listed apart in the source
Bacillus anthracis [12] = test: microbe, parasite or virus in culture; format: functional; remark: listed apart in the source
Bacillus anthracis [13] = test: microbe, parasite or virus in culture; format: functional; remark: listed apart in the source
Bacillus anthracis [14] = test: microbe, parasite or virus in culture; format: functional; remark: listed apart in the source
Bacillus anthracis [15] = test: microbe, parasite or virus in culture; format: functional; remark: listed apart in the source
Bacillus anthracis [16] = test: microbe, parasite or virus in culture; format: functional; remark: listed apart in the source
Bacillus anthracis [17] = test: microbe, parasite or virus in culture; format: functional; remark: listed apart in the source
Bacillus anthracis [18] = test: microbe, parasite or virus in culture; format: functional; remark: listed apart in the source
Bacillus anthracis [19] = test: microbe, parasite or virus in culture; format: functional; remark: listed apart in the source
Bacillus anthracis [20] = test: microbe, parasite or virus in culture; format: functional; remark: listed apart in the source
Bacillus anthracis [21] = test: microbe, parasite or virus in culture; format: functional; remark: listed apart in the source
Bacillus anthracis [22] = test: microbe, parasite or virus in culture; format: functional; remark: listed apart in the source
Bacillus anthracis [23] = test: microbe, parasite or virus in culture; format: functional; remark: listed apart in the source
Bacillus anthracis [24] = test: microbe, parasite or virus in culture; format: functional; remark: listed apart in the source
Bacillus anthracis [25] = test: microbe, parasite or virus in culture; format: functional; remark: listed apart in the source
Bacillus anthracis [26] = test: microbe, parasite or virus in culture; format: functional; remark: listed apart in the source
Bacillus anthracis [27] = test: microbe, parasite or virus in culture; format: functional; remark: listed apart in the source
Bacillus anthracis [28] = test: microbe, parasite or virus in culture; format: functional; remark: listed apart in the source
Bacillus anthracis [29] = test: microbe, parasite or virus in culture; format: functional; remark: listed apart in the source
Bacillus anthracis [30] = conditions: Ames, 30 mg/kg
Bacillus anthracis [31] = test: animal or person; conditions: Ames, in Mus musculus, ip

Structure (SMILES)	MIC (Bacillus anthracis [1]) [µg/mL]	MIC (Bacillus anthracis [2]) [µg/mL]	MIC (Bacillus anthracis [3]) [µg/mL]	MIC (Bacillus anthracis [4]) [µg/mL]	MIC (Bacillus anthracis [5]) [µg/mL]	MIC (Bacillus anthracis [6]) [µg/mL]	MIC (Bacillus anthracis [7]) [µg/mL]	MIC (Bacillus anthracis [8]) [µg/mL]	MIC (Bacillus anthracis [9]) [µg/mL]	MIC (Bacillus anthracis [10]) [µg/mL]	MIC (Bacillus anthracis [11]) [µg/mL]	MIC (Bacillus anthracis [12]) [µg/mL]	MIC (Bacillus anthracis [13]) [µg/mL]	MIC (Bacillus anthracis [14]) [µg/mL]	MIC (Bacillus anthracis [15]) [µg/mL]	MIC (Bacillus anthracis [16]) [µg/mL]	MIC (Bacillus anthracis [17]) [µg/mL]	MIC (Bacillus anthracis [18]) [µg/mL]	MIC (Bacillus anthracis [19]) [µg/mL]	MIC (Bacillus anthracis [20]) [µg/mL]	further results
CC[C@H]1OC(=O)[C@H](C)[C@@H](O[C@H]2C[C@@](C)(OC)[C@@H](O)[C@H](C)O2)[C@H](C)[C@@H](O[C@@H]2O[C@H](C)C[C@H](N(C)C)[C@H]2O)[C@](C)(O)C[C@@H](C)CN(C)[C@H](C)[C@@H](O)[C@]1(C)O [AZITHROMYCIN]	4 (≈ 5.34 µM)	4 (≈ 5.34 µM)	2 (≈ 2.67 µM)	4 (≈ 5.34 µM)	2 (≈ 2.67 µM)	2 (≈ 2.67 µM)	4 (≈ 5.34 µM)	2 (≈ 2.67 µM)	4 (≈ 5.34 µM)	4 (≈ 5.34 µM)	2 (≈ 2.67 µM)	4 (≈ 5.34 µM)	4 (≈ 5.34 µM)	1 (≈ 1.34 µM)	4 (≈ 5.34 µM)	2 (≈ 2.67 µM)	2 (≈ 2.67 µM)	4 (≈ 5.34 µM)	4 (≈ 5.34 µM)	4 (≈ 5.34 µM)	MIC (Bacillus anthracis [21]): 4 µg/mL (≈ 5.34 µM); MIC (Bacillus anthracis [22]): 4 µg/mL (≈ 5.34 µM); MIC (Bacillus anthracis [23]): 4 µg/mL (≈ 5.34 µM); MIC (Bacillus anthracis [24]): 4 µg/mL (≈ 5.34 µM); MIC (Bacillus anthracis [25]): 2 µg/mL (≈ 2.67 µM); MIC (Bacillus anthracis [26]): 4 µg/mL (≈ 5.34 µM); MIC (Bacillus anthracis [27]): 4 µg/mL (≈ 5.34 µM); MIC (Bacillus anthracis [28]): 2 µg/mL (≈ 2.67 µM); MIC (Bacillus anthracis [29]): 4 µg/mL (≈ 5.34 µM)
O=C(O)c1cn(C2CC2)c2cc(N3CCNCC3)c(F)cc2c1=O [CIPROFLOXACIN]	0.25 (≈ 0.754 µM)	≤ 0.06	≤ 0.06	≤ 0.06	≤ 0.06	0.12 (≈ 0.362 µM)	0.25 (≈ 0.754 µM)	≤ 0.06	0.12 (≈ 0.362 µM)	0.12 (≈ 0.362 µM)	≤ 0.06	0.12 (≈ 0.362 µM)	≤ 0.06	0.25 (≈ 0.754 µM)	0.12 (≈ 0.362 µM)	≤ 0.06	0.12 (≈ 0.362 µM)	0.12 (≈ 0.362 µM)	≤ 0.06	0.12 (≈ 0.362 µM)	inhibition (Bacillus anthracis [30]): Active; survival at 60 mg/kg (Bacillus anthracis [31]): 90%; MIC (Bacillus anthracis [22]): 1 µg/mL (≈ 3.02 µM); MIC (Bacillus anthracis [23]): 0.12 µg/mL (≈ 0.362 µM); MIC (Bacillus anthracis [24]): ≤ 0.06 µg/mL; MIC (Bacillus anthracis [25]): ≤ 0.06 µg/mL; MIC (Bacillus anthracis [26]): ≤ 0.06 µg/mL; MIC (Bacillus anthracis [27]): ≤ 0.06 µg/mL; MIC (Bacillus anthracis [28]): ≤ 0.06 µg/mL; MIC (Bacillus anthracis [29]): ≤ 0.06 µg/mL
C[C@H]1c2cccc(O)c2C(=O)C2=C(O)[C@]3(O)C(=O)C(C(N)=O)=C(O)[C@@H](N(C)C)[C@@H]3[C@@H](O)[C@@H]21.O [DOXYCYCLINE]	≤ 0.06	≤ 0.06	≤ 0.06	≤ 0.06	≤ 0.06	≤ 0.06	0.25	≤ 0.06	≤ 0.06	≤ 0.06	≤ 0.06	≤ 0.06	≤ 0.06	≤ 0.06	≤ 0.06	≤ 0.06	≤ 0.06	≤ 0.06	≤ 0.06	≤ 0.06	MIC (Bacillus anthracis [21]): ≤ 0.06 µg/mL; MIC (Bacillus anthracis [22]): ≤ 0.06 µg/mL; MIC (Bacillus anthracis [23]): ≤ 0.06 µg/mL; MIC (Bacillus anthracis [24]): ≤ 0.06 µg/mL; MIC (Bacillus anthracis [25]): ≤ 0.06 µg/mL; MIC (Bacillus anthracis [26]): ≤ 0.06 µg/mL; MIC (Bacillus anthracis [27]): ≤ 0.06 µg/mL; MIC (Bacillus anthracis [28]): ≤ 0.06 µg/mL; MIC (Bacillus anthracis [29]): ≤ 0.06 µg/mL
C[C@@H](O)[C@H]1C(=O)N2C(C(=O)O)=C(S[C@@H]3CN[C@H](C(=O)N(C)C)C3)[C@H](C)[C@H]12 [MEROPENEM]	0.25 (≈ 0.652 µM)	0.12 (≈ 0.313 µM)	0.5 (≈ 1.3 µM)	0.12 (≈ 0.313 µM)	≤ 0.06	0.12 (≈ 0.313 µM)	0.25 (≈ 0.652 µM)	0.12 (≈ 0.313 µM)	0.12 (≈ 0.313 µM)	0.12 (≈ 0.313 µM)	0.06 (≈ 0.156 µM)	0.25 (≈ 0.652 µM)	0.12 (≈ 0.313 µM)	≤ 0.06	0.12 (≈ 0.313 µM)	4 (≈ 10.4 µM)	0.25 (≈ 0.652 µM)	0.25 (≈ 0.652 µM)	0.25 (≈ 0.652 µM)	0.12 (≈ 0.313 µM)	MIC (Bacillus anthracis [21]): 0.12 µg/mL (≈ 0.313 µM); MIC (Bacillus anthracis [22]): 0.25 µg/mL (≈ 0.652 µM); MIC (Bacillus anthracis [23]): 0.12 µg/mL (≈ 0.313 µM); MIC (Bacillus anthracis [24]): 0.12 µg/mL (≈ 0.313 µM); MIC (Bacillus anthracis [25]): < 0.06 µg/mL; MIC (Bacillus anthracis [26]): 0.12 µg/mL (≈ 0.313 µM); MIC (Bacillus anthracis [27]): 32 µg/mL (≈ 83.4 µM); MIC (Bacillus anthracis [28]): 0.12 µg/mL (≈ 0.313 µM); MIC (Bacillus anthracis [29]): 8 µg/mL (≈ 20.9 µM)
CC1(C)S[C@@H]2[C@H](NC(=O)Cc3ccccc3)C(=O)N2[C@H]1C(=O)O [PENICILLIN G]	4 (≈ 12 µM)	4 (≈ 12 µM)	2 (≈ 5.98 µM)	2 (≈ 5.98 µM)	4 (≈ 12 µM)	4 (≈ 12 µM)	2 (≈ 5.98 µM)	4 (≈ 12 µM)	1 (≈ 2.99 µM)	1 (≈ 2.99 µM)	4 (≈ 12 µM)	2 (≈ 5.98 µM)	2 (≈ 5.98 µM)	1 (≈ 2.99 µM)	1 (≈ 2.99 µM)	8 (≈ 23.9 µM)	4 (≈ 12 µM)	1 (≈ 2.99 µM)	8 (≈ 23.9 µM)	1 (≈ 2.99 µM)	MIC (Bacillus anthracis [21]): 2 µg/mL (≈ 5.98 µM); MIC (Bacillus anthracis [22]): 2 µg/mL (≈ 5.98 µM); MIC (Bacillus anthracis [23]): 2 µg/mL (≈ 5.98 µM); MIC (Bacillus anthracis [24]): 2 µg/mL (≈ 5.98 µM); MIC (Bacillus anthracis [25]): 1 µg/mL (≈ 2.99 µM); MIC (Bacillus anthracis [26]): 2 µg/mL (≈ 5.98 µM); MIC (Bacillus anthracis [27]): 32 µg/mL (≈ 95.7 µM); MIC (Bacillus anthracis [28]): 8 µg/mL (≈ 23.9 µM); MIC (Bacillus anthracis [29]): 2 µg/mL (≈ 5.98 µM)
CN(C)[C@@H]1C(O)=C(C(N)=O)C(=O)[C@@]2(O)C(O)=C3C(=O)c4c(O)cccc4[C@@](C)(O)[C@H]3C[C@@H]12 [TETRACYCLINE]	≤ 0.06	≤ 0.06	≤ 0.06	≤ 0.06	≤ 0.06	≤ 0.06	≤ 0.06	≤ 0.06	≤ 0.06	≤ 0.06	≤ 0.06	≤ 0.06	≤ 0.06	≤ 0.06	≤ 0.06	≤ 0.06	≤ 0.06	≤ 0.06	≤ 0.06	≤ 0.06	MIC (Bacillus anthracis [21]): ≤ 0.06 µg/mL; MIC (Bacillus anthracis [22]): ≤ 0.06 µg/mL; MIC (Bacillus anthracis [23]): ≤ 0.06 µg/mL; MIC (Bacillus anthracis [24]): ≤ 0.06 µg/mL; MIC (Bacillus anthracis [25]): ≤ 0.06 µg/mL; MIC (Bacillus anthracis [26]): ≤ 0.06 µg/mL; MIC (Bacillus anthracis [27]): ≤ 0.06 µg/mL; MIC (Bacillus anthracis [28]): ≤ 0.06 µg/mL; MIC (Bacillus anthracis [29]): ≤ 0.06 µg/mL
